The values that follow come from patent US20180339051A1, “COMPOSITION FOR TOPICAL APPLICATION COMPRISING DIMETHYL ISOSORBIDE, A POLYOL, AND A PHENOLIC OR POLYPHENOLIC ANTIOXIDANT” (MEDSKIN SOLUTIONS DR. SUWELACK AG, priority 2015, published 2018).

One series concerns pig skin biopsies. Description: Skin Antioxidative Potential (SAP), ESR with test radical TEMPO, ex vivo. It is filed as cell-based. Particulars: normalized to placebo-treated skin = 100%. The source says:
Skin has intrinsic antioxidative protection thanks to the many enzymatic and non-enzymatic antioxidant systems present in the epidermis. A Skin Antioxidative Potential (SAP) can be measured by ESR spectroscopy using an active test radical that is reduced by the antioxidant systems inside the epidermis and dermis. The SAP value is a quantitative ex vivo determination of the antioxidant activity inside the epidermal and dermal layers of the skin.
In contrast, if the SAP value is below 100%, the topical treatment has diminished the skin's antioxidant defense system. Topical treatments with such negative effects on the skin antioxidant system are for example application of a chemical such as detergents or physical stress such as sun exposure.
The method entails applying the composition comprising the active substance (in this case resveratrol) to pig skin biopsies and testing the antioxidative power of the active substance. The antioxidative effect is dependent on whether the active substance is absorbed into the skin.
The measurements mere carried out as follows. Skin biopsies obtained from local slaughterhouse (pig skin, 6 month old animals, external lobe of the ears) were washed, the subdermal fat was removed and the skin was cut in 2×2 cm pieces.
Emulsions made as in example 2, with or without resveratrol, and with or without a solubiliser mix (dimethyl isosorbide, 1,5-pentanediol and panthenol) were applied on the epidermal layer of the biopsies. Skin pieces were placed on a filter paper saturated with the test radical (TEMPO, 2,2,6,6-tetramethyl piperidine-N-oxyl, Sigma-Aldrich, Munich, Germany). Skin biopsies of 4 cm were taken, placed in a special ESR tissue cell and ESR spectra of the test radical were recorded in a time-course experiment.
The amplitudes of the ESR spectra were plotted against time and the obtained kinetics were fitted using a mono-exponential first order decay algorithm.
The measurements were made after penetration times of between ten minutes and four hours. All values were normalized to the placebo-treated skin. […]

The format of series [1] is physicochemical. The procedure:
Concretely, 10 ml of a pure solvent or a solubiliser mixture were stirred in a beaker at ambient temperature. An amount of 2 mg phenolic or polyphenolic antioxidant was dispersed in the mixture and stirred. If the mixture became clear, the addition of phenolic or polyphenolic antioxidant was repeated until the mixture remained turbid even after stirring for 10 min. The maximum solubility was calculated as a percentage by mass (wt %) based on this experiment.

With tocopherol, the SAP value stood at 114 ± 3% in the series on pig skin biopsies (penetration time 10 min), 103 ± 6% with pig skin biopsies (penetration time 30 min) and 100 ± 6% in the series with pig skin biopsies (penetration time 120 min).

`Oc1ccc(/C=C/c2cc(O)cc(O)c2)cc1` [Resveratrol, 3,5,4′-trihydroxy-trans-stilbene]: in series [1], the solubility in water entry is recorded as “less than 0.01 wt %”.
